In patent US11324750B2, “Compositions and methods for the treatment of severe acute respiratory syndrome coronavirus 2 (SARS-CoV-2) infection” (Children's Hospital Medical Center, priority 2020, dated 2022):

System: severe COVID-19 patients
Test: Randomized controlled trial, safety: adverse events up to day 28
Format: in vivo, human
Conditions: for ALT increase, % patients / ALT increase, n patients / AST increase, % patients / AST increase, n patients / Acute heart failure, n patients / Alkaline phosphatase increase, % patients / Alkaline phosphatase increase, n patients / Anemia, % patients / Anemia, n patients / Chemical laboratory abnormalities, % patients / Chemical laboratory abnormalities, n patients / Decreased appetite, % patients / Decreased appetite, n patients / Dizziness, % patients / Dizziness, n patients / Headache, % patients / Headache, n patients / Hematological adverse events, % patients / Hematological adverse events, n patients / Hypercholesterolemia, % patients / Hypercholesterolemia, n patients / Hypertension, % patients / Hypertension, n patients / Hypertriglyceridemia, n patients / Hypoalbuminemia, % patients / Hypoalbuminemia, n patients / Hypocalcemia, % patients / Hypocalcemia, n patients / Hypochloremia, % patients / Hypochloremia, n patients / Hypokalemia, % patients / Hypokalemia, n patients / Lymphocytopenia, % patients / Lymphocytopenia, n patients / Nausea, % patients / Nausea, n patients / Neutrocytopenia, % patients / Neutrocytopenia, n patients / Rash, % patients / Rash, n patients / Secondary Infection, n patients / Sepsis, n patients / Serious adverse events, n patients / Shock, n patients / Thrombocytopenia, % patients / Thrombocytopenia, n patients / γ-GT increase, % patients / γ-GT increase, n patients / Adverse events, % patients / Adverse events, n patients: N = 20, through day 28; for Adverse events, % patients / Adverse events, n patients: line above headache, dizziness, rash, nausea, decreased appetite, hypertension
Description: As of the effective date of this application, no therapeutics have yet been proven effective for the treatment of severe COVID-19 with cytokine storm. Ruxolitinib, a potent and selective oral inhibitor of Janus kinase (JAK) 1 and JAK2, was proposed by Applicant to be beneficial in the treatment of cytokine storm. Applicant conducted a prospective, multicenter, single-blind, randomized controlled trial involving participants diagnosed as severe COVID-19 patients. The enrolled patients were randomly separated into two groups with a 1:1 allocation by an independent statistician in blocks of 4 for all 3 sites. Study number and treatment allocation codes were provided in sequentially numbered opaque envelops. Intervention group is treated with ongoing oral intake 5 mg of ruxolitinib (Jakafi®, Novartis Pharma Stein AG, Switzerland) twice a day based on the standard-of-care (SoC); the control group is treated with placebo plus SoC. The primary endpoint was the incidence of serious adverse events occurring up to 28 days and the time to clinical improvement. The secondary endpoint is the overall mortality at D28. This trial is registered at www.chictr.org.cn as ChiCTR-OPN-2000029580.
Procedures. The first day of randomization was designated as D0. The second and the fourth day after randomization were designated D1 and D3, respectively. Dx referred to the day when either disease progressed according to the Chinese management guideline for COVID-19 (version 5.0) or defined as a one-category increase on the seven-category scale. Dend was the day before discharge. The enrolled patients were randomly separated into two groups: the treatment group (group B) received oral intake of ruxolitinib (Jakafi®, Novartis Pharma Stein AG, Switzerland) 5 mg twice a day plus standard-of-care (SoC); the control group (group A) is treated with placebo twice a day with SoC. The SoC included supplemental oxygen, noninvasive and invasive ventilation, corticosteroid, antibiotic agents, vasopressor support, renal-replacement therapy, and extracorporeal membrane oxygenation (ECMO) etc. Safety was monitored daily by two independent senior physicians from the trial center. Adverse events were classified according to the National Cancer Institute Common Terminology Criteria for Adverse Events, version 5.0. Non-contrast enhanced chest CT examinations were performed on D0 and followed-up at least once within two weeks. Additional chest CT may be performed if the condition deteriorated. All CT images were reviewed using Picture archiving and communication system (PACS). The CT features of improvement were evaluated by two independent senior radiologists blindly, which should at least meet one of the following criteria: decreased presence of ground-glass opacities (GGO), decreased lung opacification, reduced density of consolidation or decreased pleural effusion with existence of fibrous stripes^29. Peripheral blood was taken from patients on D1, D3, Dx and/or Dend for the determination of viral load by one-step RT-ddPCR, SARS-CoV-2-specific IgM and IgG by paramagnetic particle chemiluminescent immunoassay (CLIA) and cytokines measurements by Luminex FlEXMAP 3D system. Every participant's data is filled in one case record form (CRF). All the CRF tables were inputted and saved by researchers into an electronic data capture system (EDCS) and validated by a trial staff, including demographics, medical history, daily clinical findings, oximetric measurements and laboratory data involving complete blood count, serum biochemical parameters and high sensitivity C-reactive protein (hsCRP) etc.
Outcomes. The primary safety endpoint was the incidence of serious adverse events occurring up to 28 days. Safety outcomes included adverse events that occurred during treatment, serious adverse events and premature discontinuation of treatment. […]

[1] = Grade 3-4, listed as ruxolitinib

N#CC[C@H](C1CCCC1)n1cc(-c2ncnc3[nH]ccc23)cn1 [Ruxolitinib, (3R)-3-cyclopentyl-3-[4-(7H-pyrrolo[2,3-d]pyrimidin-4-yl)pyrazol-1-yl]propanenitrile]
ALT increase, % patients (Any Grade): (35.0%)
ALT increase, n patients (Any Grade): 7
AST increase, % patients (Any Grade): (15.0%)
AST increase, n patients (Any Grade): 3
Acute heart failure, n patients (Any Grade): 0
Alkaline phosphatase increase, % patients (Any Grade): (10.0%)
Alkaline phosphatase increase, n patients (Any Grade): 2
Anemia, % patients (Any Grade): (55.0%)
Anemia, n patients (Any Grade): 11
Chemical laboratory abnormalities, % patients (Any Grade): (50.0%)
Chemical laboratory abnormalities, n patients (Any Grade): 10
Decreased appetite, % patients (Any Grade): (5.0%)
Decreased appetite, n patients (Any Grade): 1
Dizziness, % patients (Any Grade): (10.0%)
Dizziness, n patients (Any Grade): 2
Headache, % patients (Any Grade): (5.0%)
Headache, n patients (Any Grade): 1
Hematological adverse events, % patients (Any Grade): (65.0%)
Hematological adverse events, n patients (Any Grade): 13
Hypercholesterolemia, % patients (Any Grade): (20.0%)
Hypercholesterolemia, n patients (Any Grade): 4
Hypertension, % patients (Any Grade): (5.0%)
Hypertension, n patients (Any Grade): 1
Hypertriglyceridemia, n patients (Any Grade): 0
Hypoalbuminemia, % patients (Any Grade): (5.0%)
Hypoalbuminemia, n patients (Any Grade): 1
Hypocalcemia, % patients (Any Grade): (5.0%)
Hypocalcemia, n patients (Any Grade): 1
Hypochloremia, % patients (Any Grade): (5.0%)
Hypochloremia, n patients (Any Grade): 1
Hypokalemia, % patients (Any Grade): (5.0%)
Hypokalemia, n patients (Any Grade): 1
Lymphocytopenia, % patients (Any Grade): (5.0%)
Lymphocytopenia, n patients (Any Grade): 1
Nausea, % patients (Any Grade): (10.0%)
Nausea, n patients (Any Grade): 2
Neutrocytopenia, % patients (Any Grade): (5.0%)
Neutrocytopenia, n patients (Any Grade): 1
Rash, % patients (Any Grade): (10.0%)
Rash, n patients (Any Grade): 2
Secondary Infection, n patients (Any Grade): 0
Sepsis, n patients (Any Grade): 0
Serious adverse events, n patients (Any Grade): 0
Shock, n patients (Any Grade): 0
Thrombocytopenia, % patients (Any Grade): (20.0%)
Thrombocytopenia, n patients (Any Grade): 4
γ-GT increase, % patients (Any Grade): (10.0%)
γ-GT increase, n patients (Any Grade): 2
Adverse events, % patients (Any Grade): (35.0%)
Adverse events, n patients (Any Grade): 7
ALT increase, % patients (Grade 1-2): (35.0%)
ALT increase, n patients (Grade 1-2): 7
AST increase, % patients (Grade 1-2): (15.0%)
AST increase, n patients (Grade 1-2): 3
Acute heart failure, n patients (Grade 1-2): 0
Alkaline phosphatase increase, % patients (Grade 1-2): (10.0%)
Alkaline phosphatase increase, n patients (Grade 1-2): 2
Anemia, % patients (Grade 1-2): (55.0%)
Anemia, n patients (Grade 1-2): 11
Chemical laboratory abnormalities, % patients (Grade 1-2): (50.0%)
Chemical laboratory abnormalities, n patients (Grade 1-2): 10
Decreased appetite, % patients (Grade 1-2): (5.0%)
Decreased appetite, n patients (Grade 1-2): 1
Dizziness, % patients (Grade 1-2): (10.0%)
Dizziness, n patients (Grade 1-2): 2
Headache, % patients (Grade 1-2): (5.0%)
Headache, n patients (Grade 1-2): 1
Hematological adverse events, % patients (Grade 1-2): (60.0%)
Hematological adverse events, n patients (Grade 1-2): 12
Hypercholesterolemia, % patients (Grade 1-2): (20.0%)
Hypercholesterolemia, n patients (Grade 1-2): 4
Hypertension, n patients (Grade 1-2): 0
Hypertriglyceridemia, n patients (Grade 1-2): 0
Hypoalbuminemia, % patients (Grade 1-2): (5.0%)
Hypoalbuminemia, n patients (Grade 1-2): 1
Hypocalcemia, % patients (Grade 1-2): (5.0%)
Hypocalcemia, n patients (Grade 1-2): 1
Hypochloremia, % patients (Grade 1-2): (5.0%)
Hypochloremia, n patients (Grade 1-2): 1
Hypokalemia, % patients (Grade 1-2): (5.0%)
Hypokalemia, n patients (Grade 1-2): 1
Lymphocytopenia, % patients (Grade 1-2): (5.0%)
Lymphocytopenia, n patients (Grade 1-2): 1
Nausea, % patients (Grade 1-2): (10.0%)
Nausea, n patients (Grade 1-2): 2
Neutrocytopenia, % patients (Grade 1-2): (5.0%)
Neutrocytopenia, n patients (Grade 1-2): 1
Rash, % patients (Grade 1-2): (10.0%)
Rash, n patients (Grade 1-2): 2
Secondary Infection, n patients (Grade 1-2): 0
Sepsis, n patients (Grade 1-2): 0
Serious adverse events, n patients (Grade 1-2): 0
Shock, n patients (Grade 1-2): 0
Thrombocytopenia, % patients (Grade 1-2): (20.0%)
Thrombocytopenia, n patients (Grade 1-2): 4
γ-GT increase, % patients (Grade 1-2): (10.0%)
γ-GT increase, n patients (Grade 1-2): 2
Adverse events, % patients (Grade 1-2): (35.0%)
Adverse events, n patients (Grade 1-2): 7
ALT increase, n patients (Grade 3-4): 0
AST increase, n patients (Grade 3-4): 0
Acute heart failure, n patients (Grade 3-4): 0
Alkaline phosphatase increase, n patients (Grade 3-4): 0
Anemia, n patients (Grade 3-4): 0
Chemical laboratory abnormalities, n patients (Grade 3-4): 0
Decreased appetite, n patients (Grade 3-4): 0
Dizziness, n patients (Grade 3-4): 0
Headache, n patients (Grade 3-4): 0
Hematological adverse events, % patients (Grade 3-4): 5.0%
Hematological adverse events, n patients (Grade 3-4): 1
Hypercholesterolemia, n patients (Grade 3-4): 0
Hypertension, % patients (Grade 3-4): 5.0%
Hypertension, n patients (Grade 3-4): 1
Hypertriglyceridemia, n patients (Grade 3-4): 0
Hypoalbuminemia, n patients (Grade 3-4): 0
Hypocalcemia, n patients (Grade 3-4): 0
Hypochloremia, n patients (Grade 3-4): 0
Hypokalemia, n patients (Grade 3-4): 0
Lymphocytopenia, % patients (Grade 3-4): 5.0%
Lymphocytopenia, n patients (Grade 3-4): 1
Nausea, n patients (Grade 3-4): 0
Neutrocytopenia, n patients (Grade 3-4): 0
Rash, n patients (Grade 3-4): 0
Secondary Infection, n patients (Grade 3-4): 0
Sepsis, n patients (Grade 3-4): 0
Serious adverse events, n patients (Grade 3-4): 0
Shock, n patients (Grade 3-4): 0
Thrombocytopenia, n patients (Grade 3-4): 0
γ-GT increase, n patients (Grade 3-4): 0
Hematological adverse events, n patients [1]: 2
Hypertension, n patients [1]: One
Adverse events, n patients (Grade 3-4): 0
Adverse events at grade 3-4, number of events (all ruxolitinib recipients, lymphocytopenia and hypertension, transient and reversible): two
Patients who reported adverse events, % (from randomization to D28, primary safety endpoint): 80%
Unexpected adverse events (primary safety endpoint): No significant unexpected adverse events
Tolerability (ruxolitinib with SoC treatment): well tolerated
